Experimental findings from ChEMBL document CHEMBL3045261, “Study on the quantitative structuretoxicity relationships of benzoic acid derivatives in rats via oral LD50” (Med Chem Res, 2009) are described below.

For the series, the system named is Rattus norvegicus. The series can be described thus: Toxicity in po dosed Rattus norvegicus (rat). To be noted: in vivo.
The molecule `O=C(OCC1CO1)c1ccccc1` (centres undefined) [BENZOIC ACID 2,3-EPOXYPROPYL ESTER] had a pLD50 of 7.25.
To `O=C(O)c1cc(Cl)ccc1O` [5-CHLOROSALICYLIC ACID] belongs 5.52; to `Nc1cc(Cl)cc(C(=O)O)c1Cl` [CHLORAMBEN], 8.16; to `C=COC(=O)c1ccccc1` [BENZOIC ACID VINYL ESTER], 8.09.
In the case of `COC(=O)c1ccccc1OC(N)=O` [2-(AMINOCARBONYL)OXYBENZOIC ACID METHYL ESTER], the pLD50 is listed as 7.82.
As for `CCCCOC(=O)c1ccccc1N` [BUTYL 2-AMINOBENZOATE], the figure is 8.52.
`O=C(O)c1ccc(Cl)c([N+](=O)[O-])c1` [4-CHLORO-3-NITROBENZOIC ACID] showed a pLD50 of 8.06.
`Cc1ccc(OC(=O)c2ccccc2O)cc1` showed a pLD50 of 7.17.
To `CCOC(=O)c1ccccc1` [ETHYL BENZOATE] belongs 7.65.
To `NC(=O)c1ccccc1O` [SALICYLAMIDE] belongs 6.89.
On to `O=C(O)c1ccccc1OP(=O)(O)O` [FOSFOSAL], for which the pLD50 was 7.01.
As for `O=C(O)c1ccc(O)cc1` [PARABEN], the figure is 9.21; as for `O=C(Cl)c1ccc([N+](=O)[O-])cc1` [4-NITROBENZOYL CHLORIDE], 8.63.
Molecule `CCOC(=O)c1ccc([N+](=O)[O-])cc1` [4-NITROBENZOIC ACID ETHYL ESTER] had a pLD50 of 7.89.
`CC(C)CCOC(=O)c1ccccc1` [BENZOIC ACID 1-(3-METHYL)BUTYL ESTER] yielded a pLD50 of 8.75.
`COC(=O)c1ccccc1O` [METHYL SALICYLATE]: the pLD50 was found to be 6.79.
As for `CCOC(=O)c1ccccc1O` [ETHYL SALICYLATE], the figure is 7.191.
Regarding `CNc1ccccc1C(=O)OC` [2-METHYLAMINOBENZOIC ACID METHYL ESTER], the pLD50 is 8.13.
To `Nc1ccccc1C(=O)O` [ANTHRANILIC ACID] belongs 8.6.
For the molecule `O=C(Oc1ccccc1)c1ccccc1O` [PHENYL SALICYLATE], the pLD50 amounted to 8.01.
On to `O=C(O)Cc1ccccc1C(=O)O` [2-CARBOXYBENZENEACETIC ACID], for which the pLD50 turned out to be 6.21.
To `O=C(O)c1ccccc1O` [SALICYLIC ACID] belongs 6.791; to `O=C(O)c1cc([N+](=O)[O-])cc([N+](=O)[O-])c1O` [3,5-DINITROSALICYLIC ACID], 6.76; to `CC(=O)Oc1ccccc1C(=O)O` [ASPIRIN], 5.3.
As for `COc1c(Cl)ccc(Cl)c1C(=O)O` [3,6 DICHLOROMETHOXYBENZOIC ACID], the figure is 6.95; as for `Nc1ccc(C(=O)O)cc1` [AMINOBENZOIC ACID], 8.7; as for `CC(C)CCOC(=O)c1ccccc1O`, 8.1.
To `O=C(O)c1ccc([N+](=O)[O-])cc1` [4-NITROBENZOIC ACID] belongs 7.58.
In turn, `O=C(O)c1cc(S(=O)(=O)O)ccc1O` [SULFOSALICYLIC] yielded a pLD50 of 7.52.
On to `COC(=O)c1cccc(C)c1O`, for which the pLD50 came to 8.25.
In turn, `O=C(Oc1cccc(O)c1)c1ccccc1` [BENZOIC ACID 3-HYDROXYPHENYL ESTER] displayed a pLD50 of 6.68.
On to `Nc1c(Cl)cc(Cl)cc1C(=O)O` [3,5-DICHLOROANTHRANILIC ACID], for which the pLD50 was found to be 8.32.
As for `Cc1ccc(OC(=O)c2ccccc2)cc1` [BENZOIC ACID 4-METHYLPHENYL ESTER], the figure is 7.88.
The molecule `O=C(O)c1c(Cl)ccc(Cl)c1O` yielded a pLD50 of 7.35.
In turn, `CC(C)COC(=O)c1ccccc1O` gave a pLD50 of 7.35.
For the molecule `O=C(O)c1ccccc1C(=O)c1ccccc1` [2-BENZOYLBENZOIC ACID], the pLD50 is given as 8.43.
For the molecule `Cc1cccc(C(=O)O)c1O` [HYDROXYTOLUIC ACID], the pLD50 is on record as 6.1.
As for `CCCCCCOC(=O)c1ccccc1` [BENZOIC ACID HEXYL ESTER], the figure is 9.42; as for `CC(C)=CCOC(=O)c1ccccc1` [BENZOIC ACID 3-METHYL-2-BUTENYL ESTER], 8.46.
To `Nc1ccc(O)c(C(=O)O)c1` [MESALAMINE] belongs 7.94; to `CC(C)OC(=O)c1ccccc1` [BENZOIC ACID 1-METHYLETHYL ESTER], 8.22; to `CC(C)COC(=O)c1ccccc1` [BENZOIC ACID 2-METHYLPROPYL ESTER], 8.63.
`O=C(OCc1ccccc1)c1ccccc1O` [BENZYL SALICYLATE] had a pLD50 of 7.71.
As for `COC(=O)c1ccccc1OC` [METHYL 2-METHOXYBENZOATE], the figure is 8.241.
As for `O=C(O)c1ccccc1` [BENZOIC ACID], the figure is 7.44.
Molecule `O=C(O)c1c(Cl)ccc(Cl)c1Cl` [2,3,6-TRICHLOROBENZOIC ACID] yielded a pLD50 of 6.48.
To `O=C(Cl)c1ccccc1` [BENZOYL CHLORIDE] belongs 7.55.
To `COc1cccc(OC)c1C(=O)O` [2,6-DIMETHOXYBENZOIC ACID] belongs 6.21.
As for `CCOC(=O)c1ccc(OC)cc1` [4-METHOXYBENZOIC ACID ETHYL ESTER], the figure is 7.62; as for `CCOC(=O)c1ccc(N)cc1` [BENZOCAINE], 8.02.
`CCCOC(=O)c1cc(O)c(O)c(O)c1` [PROPYL GALLATE] displayed a pLD50 of 7.65.
The molecule `O=C(O)c1ccccc1/N=C/c1ccccc1` [N-BENZYLIDENEANTHRANILIC ACID] registered a pLD50 of 6.21.
In the case of `COC(=O)c1cc([N+](=O)[O-])ccc1Cl`, the pLD50 amounted to 8.59.
`COC(=O)c1ccc(OC)cc1` [METHYL 4-METHOXYBENZOATE] gave a pLD50 of 8.52.
